From patent publication EP1803452A1, “ESTER DERIVATIVE AND PHARMACEUTICAL USE THEREOF” (Japan Tobacco, Inc., priority 2004, dated 2006)

Experiments:
[1] = Metabolic stability test in liver S9; type: in vitro ADME; conditions: pH 7.4, human liver S9 2 mg protein/mL, LC/MS; for remaining at 10 min: unchanged form after 10 minutes at 37°C, read-out: Remaining rate in human liver S9 (%/10min); for remaining at 1 h: unchanged form after 60 minutes at 37°C, read-out: Remaining rate in human liver S9 (%/60min)
Procedure, shortened: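 Compound from DMSO solution was incubated at 37°C with human liver S9 (final 2 mg protein/mL) in 100 mM potassium phosphate pH 7.4 with an NADPH-regenerating system for 0, 10 and 60 minutes. Reactions were stopped with acetonitrile/0.1% formic acid. Unchanged compound was measured by LC/MS as remaining rate (%) relative to zero time.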

[2] = Metabolic stability test in plasma; type: in vitro ADME, human; conditions: LC/MS; for remaining at 10 min: unchanged form after 10 minutes at 37°C in human plasma, read-out: Remaining rate in human plasma (%/10min); for remaining at 1 h: unchanged form after 60 minutes at 37°C in human plasma, read-out: Remaining rate in human plasma (%/60min)
Procedure, shortened: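 Remaining rate (%) versus zero time was derived from LC/MS measurement of parent compound after centrifugation. Plasma from human, mouse and hamster received DMSO-dissolved compound and was held at 37°C for 0, 10 or 60 minutes before acetonitrile containing formic acid (final 0.1%) stopped the reaction.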

[3] = Stability test in buffer (pH 7.4); type: physicochemical; conditions: phosphate buffer/acetonitrile 7:3, 100 mM potassium phosphate buffer (pH 7.4) and acetonitrile 7:3 (v/v), LC/MS; for remaining at 10 min: 10 minutes at 37°C, read-out: Buf. remaining rate (%/10min); for remaining at 1 h: 60 minutes at 37°C, read-out: Buf. remaining rate (%/60min)
Procedure, shortened: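 Parent compound measured by LC/MS after 0, 10 or 60 min at 37°C in a 7:3 (v/v) mix of 100 mM potassium phosphate buffer and acetonitrile, with the reaction stopped by acetonitrile plus formic acid (final 0.1%). Percentage remaining is expressed relative to the zero-time amount.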

[4] = target: T1, Microsomal triglyceride transfer protein (MTP) from human small intestine microsome (Homo sapiens, UniProt P55157); assay: Inhibition test of interliposomal triglyceride (TG) transfer activity by MTP; type: biochemical; conditions: purified MTP from human small intestine microsome, 14C-triolein donor/acceptor liposomes, 37 °C for 1.5 hours
T1 construct: Human small intestine microsome was dialyzed against 10 mM phosphate buffer; tissue Tissue Transforming Technologies, Inc; host or cells: Human small intestine microsomes, dialysed, centrifuged, and the supernatant purified on DEAE Sepharose (FPLC)
T1 sequence (P55157 19-894): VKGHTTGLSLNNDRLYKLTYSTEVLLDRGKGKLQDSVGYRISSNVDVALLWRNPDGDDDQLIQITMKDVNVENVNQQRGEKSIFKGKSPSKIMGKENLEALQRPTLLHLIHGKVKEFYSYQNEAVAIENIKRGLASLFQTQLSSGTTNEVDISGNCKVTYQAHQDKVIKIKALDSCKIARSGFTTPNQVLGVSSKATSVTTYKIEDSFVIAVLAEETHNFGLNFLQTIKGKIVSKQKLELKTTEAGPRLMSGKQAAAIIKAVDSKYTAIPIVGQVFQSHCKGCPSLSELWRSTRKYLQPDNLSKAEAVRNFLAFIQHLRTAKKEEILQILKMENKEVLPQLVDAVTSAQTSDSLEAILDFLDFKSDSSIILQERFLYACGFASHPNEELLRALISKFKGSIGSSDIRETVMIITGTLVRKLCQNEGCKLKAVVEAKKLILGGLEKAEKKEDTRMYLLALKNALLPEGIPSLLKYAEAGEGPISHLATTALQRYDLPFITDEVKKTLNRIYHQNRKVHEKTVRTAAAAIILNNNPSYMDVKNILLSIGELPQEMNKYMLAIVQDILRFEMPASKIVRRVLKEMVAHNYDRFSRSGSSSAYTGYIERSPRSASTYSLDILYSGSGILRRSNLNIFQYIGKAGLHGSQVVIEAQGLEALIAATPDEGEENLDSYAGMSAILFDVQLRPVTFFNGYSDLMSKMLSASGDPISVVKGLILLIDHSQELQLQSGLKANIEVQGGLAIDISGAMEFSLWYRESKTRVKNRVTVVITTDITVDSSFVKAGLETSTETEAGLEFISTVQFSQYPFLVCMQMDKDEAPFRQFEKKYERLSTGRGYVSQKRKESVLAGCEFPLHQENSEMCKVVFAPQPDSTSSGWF
T1 sequence (P07237 18-508 partner): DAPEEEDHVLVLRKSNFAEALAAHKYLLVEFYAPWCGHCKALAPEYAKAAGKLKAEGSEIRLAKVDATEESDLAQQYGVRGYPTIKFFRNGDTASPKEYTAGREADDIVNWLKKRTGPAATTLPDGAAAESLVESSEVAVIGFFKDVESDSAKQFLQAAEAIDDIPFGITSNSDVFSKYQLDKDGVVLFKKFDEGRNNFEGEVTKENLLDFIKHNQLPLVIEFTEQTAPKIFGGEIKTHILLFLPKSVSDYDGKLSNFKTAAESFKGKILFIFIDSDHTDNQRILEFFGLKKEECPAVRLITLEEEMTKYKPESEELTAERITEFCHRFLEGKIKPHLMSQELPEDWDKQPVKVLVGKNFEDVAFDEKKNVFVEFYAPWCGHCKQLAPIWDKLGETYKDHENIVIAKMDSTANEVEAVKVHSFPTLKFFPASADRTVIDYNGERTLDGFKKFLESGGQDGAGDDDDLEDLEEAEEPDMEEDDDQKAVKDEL
Text: Firstly, in order to prepare the donor, there were volatilized under a stream of nitrogen gas a phosphatidylcholine solution containing phosphatidylcholine labeled with ^3H, a cardiolipin solution, and a triolein solution containing triolein labeled with ^14C (each solution had been already dissolved in an appropriate organic solvent), or in order to prepare the acceptor, there were volatilized under nitrogen flow a phosphatidylcholine solution containing phosphatidylcholine labeled with ^3H and a cardiolipin solution (each solution had been already dissolved in an appropriate organic solvent). An appropriate amount of a reaction buffer (15 mM Tris-HCl buffer containing 1 mM EDTA.Na2, 40 mM NaCl, and 0.5% (w/v) bovine serum albumin, pH 7.4) was added thereto to be emulsified. […] Each of the resulting supernatant was used for donor or acceptor.
Each radioactivity in the acceptor and the donor was measured by liquid scintillation counter, and a mixed solution of the acceptor and the donor was prepared with a reaction buffer so as to be a donor-derived radioactivity of 16,000 dpm/400 µL and a acceptor-derived radioactivity of 4,000 dpm/400 µL. 400 µL of the mixed solution of the donor and the acceptor, 45 µL of the reaction buffer, 50 µL of MTP (20 µg/mL), and 5 µL of a sample dissolved in DMSO (dimethyl sulfoxide) or 5 µL of DMSO was mixed (total amount: 500 µL). The mixture was incubated at 37 °C for 1.5 hours. […] The radioactivity in the acceptor was measured by liquid scintillation counter. The value obtained by subtracting the radioactivity in a blank group from the radioactivity in the acceptor of a DMSO group was determined as MTP-mediated TG transfer activity, and it was compared with the value obtained by subtracting the radioactivity in the blank group from the radioactivity in a sample group. […] Inhibition rate (%) was calculated from values obtained according to the following equation. Inhibition rate(%) = (1 minus ((radioactivity of sample group minus radioactivity of blank group)/(radioactivity of DMSO group minus radioactivity of blank group))) × 100.

Row | SMILES | remaining at 10 min [1] | remaining at 1 h [1] | remaining at 10 min [2] | remaining at 1 h [2] | remaining at 10 min [3] | remaining at 1 h [3] | Human intestine MTP (IC50(nM)) [4]
1 | COC(=O)c1ccc(OC(=O)CCCc2ccc(NC(=O)c3ccc(C)cc3-c3ccc(C(F)(F)F)cc3)c(C(=O)N(C)C)c2)cc1 [Compound 1-9, 4-(4-{3-dimethylcarbamoyl-4-[(5-methyl-4'-trifluoromethylbiphenyl-2-carbonyl)amino]phenyl}butyryloxy) benzoic acid methyl ester] | 0% | 0% | 34% | 0% | 94% | 97% | ++ +
2 | COC(=O)c1ccc(OC(=O)CCCc2ccc(NC(=O)c3ccc(C)nc3-c3ccc(C(F)(F)F)cc3)c(C(=O)N(C)C)c2)c(C(=O)OC)c1 [Compound 1-70, 4-[4-(3-dimethylcarbamoyl-4-{[6-methyl-2-(4-trifluoromethylphenyl)pyridine-3-carbonyl]amino}phenyl)butyryloxy]isophthalic acid dimethyl ester] | 0% | 0% | 0% | 0% | 101% | 104% | + ++
3 | CCOC(=O)c1cc(OC)c(OC(=O)CCCc2ccc(NC(=O)c3ccc(C)nc3-c3ccc(C(F)(F)F)cc3)c(C(=O)N(C)C)c2)c(C(=O)OC)c1 [Compound 1-54, 4-[4-(3-dimethylcarbamoyl-4-{[6-methyl-2-(4-trifluoromethylphenyl)pyridine-3-carbonyl]amino}phenyl)butyryloxy]-5-methoxyisophthalic acid 1-ethyl ester 3-methyl ester] | 10% | 2% | 0% | 0% | 97% | 105% | + ++
4 | CCOC(=O)c1ccc(OC(=O)CCCc2ccc(NC(=O)c3ccccc3-c3ccc(C(F)(F)F)cc3)c(C(=O)N(C)C)c2)cc1 [Compound 1-6, 4-(4-{3-dimethylcarbamoyl-4-[(4'-trifluoromethylbiphenyl-2-carbonyl)amino]phenyl}butyryloxy)benzoic acid ethyl ester] | 0% | 0% | 53% | 0% | 102% | 102% | –
5 | COC(=O)c1ccc(OC(=O)CCCc2ccc(NC(=O)c3cccnc3-c3ccc(C(F)(F)F)cc3)c(C(=O)N(C)C)c2)cc1 [Compound 1-28, 4-[4-(3-dimethylcarbamoyl-4-{[2-(4-trifluoromethylphenyl)pyridine-3-carbonyl]amino}phenyl)butyryloxy]benzoic acid methyl ester] | 0% | 0% | 0% | 0% | 101% | 102% | –
6 | CCOC(=O)c1cc(OC)c(OC(=O)CCCc2ccc(NC(=O)c3ccc(C)nc3-c3ccc(C(F)(F)F)cc3)c(C(=O)N(C)C)c2)c(OC)c1 [Compound 1-43, 4-[4-(3-dimethylcarbamoyl-4-{[6-methyl-2-(4-trifluoromethylphenyl)pyridine-3-carbonyl]amino}phenyl)butyryloxy]-3,5-dimethoxybenzoic acid ethyl ester] | 4% | 2% | 13% | 0% | 101% | 103% | –
7 | CC(=O)N1CCC(OC(=O)c2ccc(OC(=O)CCCc3ccc(NC(=O)c4ccccc4-c4ccc(C(F)(F)F)cc4)c(C(=O)N(C)C)c3)cc2)CC1 [Compound 1-109, 4-[4-(3-dimethylcarbamoyl-4-{(4'-trifluoromethylbiphenyl-2-carbonyl)amino}phenyl)butyryloxy]benzoic acid 1-acetylpiperidin-4-yl ester] | 0% | 0% | 50% | 3% | 99% | 99% | –
8 | CN(C)C(=O)c1cc(CCCC(=O)Oc2ccc(C(=O)OC3CCCc4ccccc43)cc2)ccc1NC(=O)c1ccccc1-c1ccc(C(F)(F)F)cc1 (stereo not drawn) [Compound 1-108, 4-[4-(3-dimethylcarbamoyl-4-{(4'-trifluoromethylbiphenyl-2-carbonyl)amino}phenyl)butyryloxy]benzoic acid 1,2,3,4-tetrahydronaphthalen-1-yl ester] | 25% | 5% | 89% | 17% | 98% | 98% | –
9 | CN(C)C(=O)c1cc(CCCC(=O)Oc2ccc(C(=O)OCc3ccccc3)cc2)ccc1NC(=O)c1ccccc1-c1ccc(C(F)(F)F)cc1 [Compound 1-24, 4-(4-{3-dimethylcarbamoyl-4-[(4'-trifluoromethylbiphenyl-2-carbonyl)amino]phenyl}butyryloxy)benzoic acid benzyl ester] | 10% | 6% | 9% | 4% | 95% | 95% | –
